Experimental data reported in patent EP0260606A2, “Medicament for curing neurotic disturbance or disorder comprising sialocylglycerolipid” (MECT CORPORATION, priority 1986, dated 1988).
“And” between values parts separate entries of the source, which are not always exact repeats. Identical values can stand only once.

What was measured:
[1] = tested on: neuroblastoma cell Neuro2a; test: Effect on the neuroblastoma cell Neuro2a (formation and growth of axis-cylinder process); type: cell-based; settings: for Length of Axis-cylinder Process / Number of Axis-cylinder Process: average ± S.E.
Procedure: The nervous cell used in the test was neuroblastoma cell Neuro2a which is readily available and can be cultured in a relatively simple manner.
Neuro2a was floated on a culture medium containing fetal cattle serum (hereinafter referred to as FCS), the culture medium consisting of 90% of Dubecco's Modified Eagle's Medium (hereinafter referred to as MEM) and l0% of FCS and added with l00 U/ml of penicillin G and l00 µg/ml of streptomycin sulfate, and cultured in a carbon dioxide cultivator at 37°C in an air containing 5% of carbon dioxide. The containers used were 60 mm polystyrene dishes, and each of the containers was incubated with l to 2 × l0⁴ cells followed by culturing for 48 hours prior to the test. […] After the lapse of 24 hours and 48 hours, the increase in cells formed with axis-cylinder process, the increase in number of axis-cylinder processes and the elongation of the length of the axis-cylinder process were measured.
The test was conducted while using three dishes for each concentration of each test material.

[2] = tested on: rat having its nigral depaminergic neuron destroyed; test: Methamphethamine-induced rotational movement after 6-hydroxydopamine lesion and fetal dopaminergic cell transplantation; type: in vivo; settings: for Average of Rotational Movement of Rats (Average + S.D.): group average, 30 mg/kg; for Number of Rotational Movement of Rats: individual rat, 30 mg/kg every day for two weeks from transplantation, listed as Ganglioside GM1, 30 mg/kg
From the text: The nigral dopaminergic neuron of the brain of a rat was chemically destroyed by injecting a very small quantity of 6-hydroxydopamine to cause motor disturbance.
After the lapse of two weeks, a fetal brain dopaminergic cell was transplanted on the Nucleus caudatus of the rat brain to try to remedy the motor disturbance.
The nigral depaminergic neuron at the left side of the brain of a female Wister family rat aged 4-weeks (Body Weight: l00 g) was destroyed by injecting a very small quantity of 6-hydroxydopamine.
After two weeks from the destruction by the administration of the drug, portions of the […] containing dopamin cells (i.e. substantia nigra and the Tegmentum at the abdomen side) were extracted from the fetal rat brain of a fetal rat of l4 to l7 days age, cut finely, and treated with trypsin. Then, the extracted tissues were incubated at 37°C for 30 minutes, and the tissues were subjected to pipetting to form a suspension. 5 µl each of the suspensions were transplanted on two sites of the Nucleus caudatus of the destructed side, the total of l0 µl (containing about l0⁵ cells) being transplanted.
The rotational movements caused by administration of methamphethamine were examined at the time point before 2 weeks of the transplantation (- 2W), at the time point before one week of the transplantation (- lW) and at the time point after two weeks of the transplantation (2W). The number of rotational movements within one minute were counted at l0 minute intervals after six administrations of methamphethamine, and the total number of rotational movements counted for the six times was averaged to find the mean rotational movement. As controls, the numbers of rotational movements of the rats administered, respectively, with a ganglioside mixture and GM₁ ganglioside were counted.

[3] = - 1W (before transplantation and dosing)
[4] = - 2W (before transplantation and dosing)

(NAcNeu(α2-8) NAcNeu(α2-3))-Gal(ßl-3)GalNAc(ßl-4)(NAcNeu(α2-8)NAcNeu(α-2-3))-Gal(ßl-4)Glc(ßl-l) [GQ1b]
Number of Cells Formed with Axis-cylinder Process ([1]; 24 hours, 0.01 µg/ml): 174 | Ratio of Cells Formed with Axis-cylinder Process ([1]; 24 hours, 0.01 µg/ml): 51.8% | Total Number of Cells ([1]; 24 hours, 0.01 µg/ml): 336 | Length of Axis-cylinder Process ([1]; 24 hours, 0.01 µg/ml): 88.5 ± 5.00 µm/cell | Number of Axis-cylinder Process ([1]; 24 hours, 0.01 µg/ml): 1.3 ± 0.05 per cell | Number of Cells Formed with Axis-cylinder Process ([1]; 24 hours, 0.1 µg/ml): 159 | Ratio of Cells Formed with Axis-cylinder Process ([1]; 24 hours, 0.1 µg/ml): 58.0% | Total Number of Cells ([1]; 24 hours, 0.1 µg/ml): 331 | Length of Axis-cylinder Process ([1]; 24 hours, 0.1 µg/ml): 86.0 ± 4.72 µm/cell | Number of Axis-cylinder Process ([1]; 24 hours, 0.1 µg/ml): 1.3 ± 0.04 per cell | Number of Cells Formed with Axis-cylinder Process ([1]; 24 hours, 1 µg/ml): 157 | Ratio of Cells Formed with Axis-cylinder Process ([1]; 24 hours, 1 µg/ml): 51.0% | Total Number of Cells ([1]; 24 hours, 1 µg/ml): 308 | Length of Axis-cylinder Process ([1]; 24 hours, 1 µg/ml): 97.6 ± 4.95 µm/cell | Number of Axis-cylinder Process ([1]; 24 hours, 1 µg/ml): 1.4 ± 0.05 per cell | Number of Cells Formed with Axis-cylinder Process ([1]; 24 hours, 10 µg/ml): 205 | Ratio of Cells Formed with Axis-cylinder Process ([1]; 24 hours, 10 µg/ml): 63.9% | Total Number of Cells ([1]; 24 hours, 10 µg/ml): 321 | Length of Axis-cylinder Process ([1]; 24 hours, 10 µg/ml): 114.9 ± 5.98 µm/cell | Number of Axis-cylinder Process ([1]; 24 hours, 10 µg/ml): 1.3 ± 0.06 per cell | Number of Cells Formed with Axis-cylinder Process ([1]; 24 hours, 100 µg/ml): U.C. | Total Number of Cells ([1]; 24 hours, 100 µg/ml): U.C. | Length of Axis-cylinder Process ([1]; 24 hours, 100 µg/ml): U.C. | Number of Axis-cylinder Process ([1]; 24 hours, 100 µg/ml): U.C. | Number of Cells Formed with Axis-cylinder Process ([1]; 48 hours, 0.01 µg/ml): 158 | Ratio of Cells Formed with Axis-cylinder Process ([1]; 48 hours, 0.01 µg/ml): 42.6% | Total Number of Cells ([1]; 48 hours, 0.01 µg/ml): 371 | Length of Axis-cylinder Process ([1]; 48 hours, 0.01 µg/ml): 100.4 ± 5.76 µm/cell | Number of Axis-cylinder Process ([1]; 48 hours, 0.01 µg/ml): 1.5 ± 0.06 per cell | Number of Cells Formed with Axis-cylinder Process ([1]; 48 hours, 0.1 µg/ml): 153 | Ratio of Cells Formed with Axis-cylinder Process ([1]; 48 hours, 0.1 µg/ml): 44.1% | Total Number of Cells ([1]; 48 hours, 0.1 µg/ml): 347 | Length of Axis-cylinder Process ([1]; 48 hours, 0.1 µg/ml): 90.4 ± 6.06 µm/cell | Number of Axis-cylinder Process ([1]; 48 hours, 0.1 µg/ml): 1.2 ± 0.04 per cell | Number of Cells Formed with Axis-cylinder Process ([1]; 48 hours, 1 µg/ml): 182 | Ratio of Cells Formed with Axis-cylinder Process ([1]; 48 hours, 1 µg/ml): 47.4% | Total Number of Cells ([1]; 48 hours, 1 µg/ml): 384 | Length of Axis-cylinder Process ([1]; 48 hours, 1 µg/ml): 106.5 ± 6.40 µm/cell | Number of Axis-cylinder Process ([1]; 48 hours, 1 µg/ml): 1.3 ± 0.04 per cell | Number of Cells Formed with Axis-cylinder Process ([1]; 48 hours, 10 µg/ml): 214 | Ratio of Cells Formed with Axis-cylinder Process ([1]; 48 hours, 10 µg/ml): 61.8% | Total Number of Cells ([1]; 48 hours, 10 µg/ml): 346 | Length of Axis-cylinder Process ([1]; 48 hours, 10 µg/ml): 122.5 ± 6.99 µm/cell | Number of Axis-cylinder Process ([1]; 48 hours, 10 µg/ml): 1.3 ± 0.04 per cell | Number of Cells Formed with Axis-cylinder Process ([1]; 48 hours, 100 µg/ml): U.C. | Total Number of Cells ([1]; 48 hours, 100 µg/ml): U.C. | Length of Axis-cylinder Process ([1]; 48 hours, 100 µg/ml): U.C. | Number of Axis-cylinder Process ([1]; 48 hours, 100 µg/ml): U.C.

Gal, (ßl-3) GalNAc (ßl-4) NAcNeu(α2-3))Gal(ßl-4)Glc(ßl-l)Ceramide [GM1]
Number of Cells Formed with Axis-cylinder Process ([1]; 24 hours, 0.01 µg/ml): 145 | Ratio of Cells Formed with Axis-cylinder Process ([1]; 24 hours, 0.01 µg/ml): 43.4% | Total Number of Cells ([1]; 24 hours, 0.01 µg/ml): 334 | Length of Axis-cylinder Process ([1]; 24 hours, 0.01 µg/ml): 94.9 ± 6.64 µm/cell | Number of Axis-cylinder Process ([1]; 24 hours, 0.01 µg/ml): 1.4 ± 0.05 per cell | Number of Cells Formed with Axis-cylinder Process ([1]; 24 hours, 0.1 µg/ml): 142 | Ratio of Cells Formed with Axis-cylinder Process ([1]; 24 hours, 0.1 µg/ml): 47.8% | Total Number of Cells ([1]; 24 hours, 0.1 µg/ml): 297 | Length of Axis-cylinder Process ([1]; 24 hours, 0.1 µg/ml): 101.1 ± 5.09 µm/cell | Number of Axis-cylinder Process ([1]; 24 hours, 0.1 µg/ml): 1.4 ± 0.06 per cell | Number of Cells Formed with Axis-cylinder Process ([1]; 24 hours, 1 µg/ml): 140 | Ratio of Cells Formed with Axis-cylinder Process ([1]; 24 hours, 1 µg/ml): 42.2% | Total Number of Cells ([1]; 24 hours, 1 µg/ml): 332 | Length of Axis-cylinder Process ([1]; 24 hours, 1 µg/ml): 109.7 ± 6.44 µm/cell | Number of Axis-cylinder Process ([1]; 24 hours, 1 µg/ml): 1.4 ± 0.06 per cell | Number of Cells Formed with Axis-cylinder Process ([1]; 24 hours, 10 µg/ml): 149 | Ratio of Cells Formed with Axis-cylinder Process ([1]; 24 hours, 10 µg/ml): 45.8% | Total Number of Cells ([1]; 24 hours, 10 µg/ml): 325 | Length of Axis-cylinder Process ([1]; 24 hours, 10 µg/ml): 89.3± 4.77 µm/cell | Number of Axis-cylinder Process ([1]; 24 hours, 10 µg/ml): 1.4 ± 0.05 per cell | Number of Cells Formed with Axis-cylinder Process ([1]; 24 hours, 100 µg/ml): 172 | Ratio of Cells Formed with Axis-cylinder Process ([1]; 24 hours, 100 µg/ml): 55.5% | Total Number of Cells ([1]; 24 hours, 100 µg/ml): 310 | Length of Axis-cylinder Process ([1]; 24 hours, 100 µg/ml): 90.5 ± 3.88 µm/cell | Number of Axis-cylinder Process ([1]; 24 hours, 100 µg/ml): 1.8 ± 0.05 per cell | Number of Cells Formed with Axis-cylinder Process ([1]; 48 hours, 0.01 µg/ml): 194 | Ratio of Cells Formed with Axis-cylinder Process ([1]; 48 hours, 0.01 µg/ml): 58.3% | Total Number of Cells ([1]; 48 hours, 0.01 µg/ml): 333 | Length of Axis-cylinder Process ([1]; 48 hours, 0.01 µg/ml): 93.7 ± 5.07 µm/cell | Number of Axis-cylinder Process ([1]; 48 hours, 0.01 µg/ml): 1.4 ± 0.05 per cell | Number of Cells Formed with Axis-cylinder Process ([1]; 48 hours, 0.1 µg/ml): 156 | Ratio of Cells Formed with Axis-cylinder Process ([1]; 48 hours, 0.1 µg/ml): 44.7% | Total Number of Cells ([1]; 48 hours, 0.1 µg/ml): 349 | Length of Axis-cylinder Process ([1]; 48 hours, 0.1 µg/ml): 108.8 ± 5.97 µm/cell | Number of Axis-cylinder Process ([1]; 48 hours, 0.1 µg/ml): 1.4 ± 0.06 per cell | Number of Cells Formed with Axis-cylinder Process ([1]; 48 hours, 1 µg/ml): 211 | Ratio of Cells Formed with Axis-cylinder Process ([1]; 48 hours, 1 µg/ml): 59.9% | Total Number of Cells ([1]; 48 hours, 1 µg/ml): 352 | Length of Axis-cylinder Process ([1]; 48 hours, 1 µg/ml): 109.2 ± 6.09 µm/cell | Number of Axis-cylinder Process ([1]; 48 hours, 1 µg/ml): 1.3 ± 0.04 per cell | Number of Cells Formed with Axis-cylinder Process ([1]; 48 hours, 10 µg/ml): 205 | Ratio of Cells Formed with Axis-cylinder Process ([1]; 48 hours, 10 µg/ml): 62.1% | Total Number of Cells ([1]; 48 hours, 10 µg/ml): 330 | Length of Axis-cylinder Process ([1]; 48 hours, 10 µg/ml): 113.8 ± 5.49 µm/cell | Number of Axis-cylinder Process ([1]; 48 hours, 10 µg/ml): 1.3 ± 0.04 per cell | Number of Cells Formed with Axis-cylinder Process ([1]; 48 hours, 100 µg/ml): 193 | Ratio of Cells Formed with Axis-cylinder Process ([1]; 48 hours, 100 µg/ml): 60.9% | Total Number of Cells ([1]; 48 hours, 100 µg/ml): 317 | Length of Axis-cylinder Process ([1]; 48 hours, 100 µg/ml): 98.9 ± 5.22 µm/cell | Number of Axis-cylinder Process ([1]; 48 hours, 100 µg/ml): 1.5 ± 0.05 per cell | Average of Rotational Movement of Rats (Average + S.D.) ([2]; 2W after transplantation): 7.6+3.6 | Average of Rotational Movement of Rats (Average + S.D.) [2, 3]: 9.8+4.4 | Average of Rotational Movement of Rats (Average + S.D.) [2, 4]: 9.0+4.1 | Number of Rotational Movement of Rats ([2]; 2W after transplantation): 3.7 and 10.9 and 8.2 | Number of Rotational Movement of Rats [2, 3]: 14.8 and 6.9 and 7.6 | Number of Rotational Movement of Rats [2, 4]: 12.5 and 10.1 and 4.5
